Reference: patent EP4663635A1, “CRYSTALLINE FORM OF SULFONAMIDE DERIVATIVE AND PREPARATION METHOD THEREFOR” (Jiangsu Hengrui Pharmaceuticals Co., Ltd., priority 2023, dated 2024)
Values belong to the compound of their own block, whether it stands above or below them.

Columns and labels:
[1] = Hygroscopicity study of crystal forms (DVS); assay type: physicochemical; conditions: for 0.0%RH-80.0%RH: DVS mass change, 25 °C; for Crystal form: crystal form after DVS test
Procedure: DVS refers to dynamic vapor sorption: The analysis was performed using SMS DVS Advantage; at 25 °C, the humidity was changed as follows: 50%-95%-0%-95%-50%, in steps of 10% (5% for the last step) (specific humidity ranges are shown in corresponding patterns, and those listed here were used in most cases); the criterion was dm/dt being not greater than 0.002%.
Surface Measurement Systems intrinsic DVS was adopted. At 25 °C, the crystal forms were tested in a humidity range of 0%-95%, with increments of 10%. The criterion was that each gradient mass change dM/dT is less than 0.002%, TMAX 360 min, two cycles.

[2] = Long-term/accelerated stability of crystal forms; assay type: physicochemical
Procedure: Free-state samples were sealed in aluminum foil bags and left to stand in 25 °C/60% RH and 40 °C/75% RH conditions to test their stability.

[3] = Stability influencing factor study of crystal forms; assay type: physicochemical
Procedure: Free-state samples were spread out, left to stand in open flasks, and subjected to 30-day stability tests in light exposure (4500 Lux), high temperature (40 °C and 60 °C), and high humidity (RH 75% and RH 92.5%) conditions.

[4] = biological target: T1, KAT6A (Homo sapiens, UniProt Q92794); experiment: Enzymatic activity assay KAT6 (AlphaScreen method); assay type: biochemical; conditions: KAT enzyme 1.25 nM, Ac-CoA 1000 nM, H3 55 nM
T1 construct: purchased Chempartner (customized)
T1 sequence (Q92794 whole entry, species assumed): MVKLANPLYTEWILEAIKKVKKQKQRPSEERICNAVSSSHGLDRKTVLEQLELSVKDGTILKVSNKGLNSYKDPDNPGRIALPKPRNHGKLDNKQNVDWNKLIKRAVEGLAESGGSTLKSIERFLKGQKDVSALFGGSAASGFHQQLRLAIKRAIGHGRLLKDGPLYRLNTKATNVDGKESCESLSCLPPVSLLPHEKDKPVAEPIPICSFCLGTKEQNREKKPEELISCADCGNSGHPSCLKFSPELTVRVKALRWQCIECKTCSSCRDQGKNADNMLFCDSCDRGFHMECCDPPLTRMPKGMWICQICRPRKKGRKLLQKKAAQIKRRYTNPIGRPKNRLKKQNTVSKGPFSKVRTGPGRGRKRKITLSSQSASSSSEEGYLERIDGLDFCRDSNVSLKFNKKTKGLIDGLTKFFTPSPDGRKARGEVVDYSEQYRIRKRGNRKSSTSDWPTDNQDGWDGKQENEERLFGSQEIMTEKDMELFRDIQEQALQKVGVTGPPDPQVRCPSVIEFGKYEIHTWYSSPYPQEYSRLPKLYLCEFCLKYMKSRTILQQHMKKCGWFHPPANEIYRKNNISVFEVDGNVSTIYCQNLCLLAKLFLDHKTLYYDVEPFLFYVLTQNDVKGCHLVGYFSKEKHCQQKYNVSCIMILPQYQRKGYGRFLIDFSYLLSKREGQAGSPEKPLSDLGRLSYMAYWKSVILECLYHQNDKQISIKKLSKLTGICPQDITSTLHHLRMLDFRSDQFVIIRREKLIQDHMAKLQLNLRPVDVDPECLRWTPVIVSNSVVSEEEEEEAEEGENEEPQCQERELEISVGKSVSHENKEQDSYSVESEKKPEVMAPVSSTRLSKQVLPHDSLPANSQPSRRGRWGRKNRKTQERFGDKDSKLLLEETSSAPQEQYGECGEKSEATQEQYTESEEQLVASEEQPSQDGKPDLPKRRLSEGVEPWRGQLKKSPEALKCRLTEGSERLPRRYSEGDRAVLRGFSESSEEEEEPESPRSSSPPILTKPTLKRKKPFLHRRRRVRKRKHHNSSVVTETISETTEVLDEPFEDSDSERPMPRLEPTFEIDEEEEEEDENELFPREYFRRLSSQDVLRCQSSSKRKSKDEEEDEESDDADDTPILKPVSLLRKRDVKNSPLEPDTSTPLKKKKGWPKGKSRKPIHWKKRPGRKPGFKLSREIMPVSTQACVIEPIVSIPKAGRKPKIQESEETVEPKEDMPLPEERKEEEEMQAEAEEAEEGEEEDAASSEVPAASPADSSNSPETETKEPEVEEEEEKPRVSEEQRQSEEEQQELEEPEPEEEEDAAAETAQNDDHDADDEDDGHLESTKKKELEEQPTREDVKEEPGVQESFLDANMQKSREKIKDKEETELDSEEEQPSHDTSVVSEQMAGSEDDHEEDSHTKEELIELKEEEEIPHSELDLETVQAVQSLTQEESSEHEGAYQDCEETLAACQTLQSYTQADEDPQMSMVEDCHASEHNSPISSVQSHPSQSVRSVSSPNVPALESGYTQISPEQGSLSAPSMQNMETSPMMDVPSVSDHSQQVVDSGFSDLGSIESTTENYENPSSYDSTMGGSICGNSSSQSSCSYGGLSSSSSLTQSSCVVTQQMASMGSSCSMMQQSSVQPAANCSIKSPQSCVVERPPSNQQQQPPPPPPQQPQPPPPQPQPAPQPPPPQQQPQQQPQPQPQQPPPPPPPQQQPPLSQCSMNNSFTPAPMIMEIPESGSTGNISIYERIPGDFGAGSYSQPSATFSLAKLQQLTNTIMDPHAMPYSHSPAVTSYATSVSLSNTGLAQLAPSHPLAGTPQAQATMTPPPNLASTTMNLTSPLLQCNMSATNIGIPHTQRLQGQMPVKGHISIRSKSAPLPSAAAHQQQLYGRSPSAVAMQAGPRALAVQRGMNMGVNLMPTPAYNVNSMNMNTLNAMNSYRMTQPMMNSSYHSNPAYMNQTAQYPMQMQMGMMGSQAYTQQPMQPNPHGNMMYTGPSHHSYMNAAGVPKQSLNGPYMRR
Excerpt: • 1. KAT6A (customized by Chempartner) • 2. Ovalbumin (Sigma-Aldrich, A5378-5G) • 3. 2 M Tris-HCl solution, pH 7.8, sterile (Sangon, B548140-0500) • 4. 5 M NaCl solution (Sangon, B548121-0100) • 5. EDTA (0.5 M), pH 8.0, RNase-free (Thermofisher, AM9260G) • 6. Tween-20 (Sangon, A100777-0500) • 7. DTT, 1 M (Invitrogen, P2325) • 8. Acetyl coenzyme A (Ac-CoA, CAYMAN, Cat. No. 16160) • 9. Recombinant histone H3.1 biotinylated (human) (Active Motif 31696) • 10. 384-well plate, light gray (PerkinElmer, Cat. No. 6005350) • 11. Anacardic acid (MCE, Cat. No. HY-N2020) • 12. AlphaScreen streptavidin donor beads, 5 mg (PerkinElmer, 6760002) • 13. AlphaScreen protein A acceptor beads, 5 mg (PerkinElmer, 6760137M) • 14. Acetylated-lysine antibody #9441 (CST 9441S) • 15. PHERA star microplate reader (BMG labtech)
• a. 1× assay buffer: 100 mM Tris-HCl, pH 7.8; 15 mM NaCl; 1 mM EDTA; 0.01% tween-20; 1 mM DTT; 0.01% m/v ovalbumin. • b. KAT enzyme solution: 1.25 nM (final concentration), prepared in 1× assay buffer. • c. […]
The prepared enzyme solution was added to a 384-well plate at 3 µL/well, and 3 µL of 1× assay buffer was added to each well in columns 23 and 24 (Min). […] Plate reading was performed on the microplate reader, and AlphaScreen counts were recorded. Plotting was performed using the Graphpad software, and the IC50 values of the compounds were calculated. […]

[5] = tested on: ZR-75-1; experiment: Anti-ZR-75-1 proliferation assay (CellTiter-Glo); assay type: cell-based; conditions: CTG assay on day 14
Excerpt: • 1. ZR-75-1 (ATCC CRL1500) • 2. 1640 medium (Gibco, 22400-089) • 3. 0.25% trypsin-EDTA (1×) (Gibco, 25200-072) • 4. Penicillin-streptomycin (Gibco, 15140-122) • 5. DPBS (1×) (Gibco, 14190-144) • 6. FBS (Gibco, 10091148) • 7. Assay plate, 96-well, black with clear bottom (Corning, 3603) • 8. 96-well non-treated round-bottom plate (JET BIOFIL, TCP-002-096) • 9. CellTiter-Glo buffer (Promega, G756B) • 10. CellTiter-Glo substrate (Promega, G755B) • 11. Automatic cell counter (Countstar, IC1000) • 12. Thermostatic incubator (Thermo, I160) • 13. PHERAstar FS (BMG labtech, PHERAstar FS)
• a. The state of cells was observed under a microscope to make sure that the cell confluence was about 90%. • b. The cell supernatant was discarded. The cells were rinsed with DPBS once, and the DPBS was removed. The cells were digested with a proper amount of trypsin and left to stand at 37 °C for 5 min. • c. The digestion was stopped with an equal volume of 1640 medium containing 10% FBS, and the cell suspension was collected and centrifuged at 300 g for 3 min. The cells were suspended in a proper amount of fresh medium. • d. The resulting cell suspension was collected and cell counting was performed. • e. The cell suspension was diluted to 5 × 10^4 cells/mL, 50 µL/well with 1640 medium containing 10% FBS. Each well contained 2500 ZR-75-1 cells. • f. […]

0.0%RH-80.0%RH [1]: 19.91%
Crystal form [1]: No change
Compound: COc1cccc(OC)c1S(=O)(=O)Nc1noc2cc(Cn3cccn3)c3c(c12)OCCC3 [Crystal form H, N-(5-((1H-pyrazol-1-yl)methyl)-3,4-dihydro-2H-chromeno[8,7-d]isoxazol-9-yl)-2,6-dimethoxybenzenesulfonamide]

Crystal form ([2]; 25 °C/60%RH): No change
Purity% ([2]; 25 °C/60%RH, 1 month): 99.1%
Purity% ([2]; 25 °C/60%RH, 2 months): 99.1%
Purity% ([2]; 25 °C/60%RH, 3 months): 99.1%
Purity% ([2]; 25 °C/60%RH, 9 months): 99.1%
Purity% ([2]; 25 °C/60%RH, 14 days): 99.1%
Purity% ([2]; 25 °C/60%RH, Initial): 99.1%
Crystal form ([2]; 40 °C/75%RH): No change
Purity% ([2]; 40 °C/75%RH, 1 month): 99.1%
Purity% ([2]; 40 °C/75%RH, 2 months): 99.1%
Purity% ([2]; 40 °C/75%RH, 3 months): 99.1%
Purity% ([2]; 40 °C/75%RH, 9 months): 99.1%
Purity% ([2]; 40 °C/75%RH, 14 days): 99.1%
Purity% ([2]; 40 °C/75%RH, Initial): 99.1%
Purity% ([3]; 40 °C, 5 days): 99.1%
Purity% ([3]; 40 °C, 10 days): 99.1%
Purity% ([3]; 40 °C, 30 days): 99.1%
Purity% ([3]; 60 °C, 7 days): 99.1%
Purity% ([3]; 60 °C, 14 days): 99.1%
Purity% ([3]; 60 °C, 30 days): 99.1%
Purity% ([3]; 75% RH, 7 days): 99.1%
Purity% ([3]; 75% RH, 14 days): 99.1%
Purity% ([3]; 75% RH, 30 days): 99.1%
Purity% ([3]; 92.5% RH, 7 days): 99.1%
Purity% ([3]; 92.5% RH, 14 days): 99.1%
Purity% ([3]; 92.5% RH, 30 days): 99.1%
Purity% ([3]; Initial, 0 days): 99.1%
Purity% ([3]; Light exposure (4500 Lux), 7 days): 99.0%
Purity% ([3]; Light exposure (4500 Lux), 14 days): 98.9%
Purity% ([3]; Light exposure (4500 Lux), 30 days): 98.9%
0.0%RH-80.0%RH [1]: 0.10%
Crystal form [1]: No change
Compound: COc1cccc(OC)c1S(=O)(=O)Nc1noc2cc(Cn3cccn3)c3c(c12)OCCC3 [Crystal form A, N-(5-((1H-pyrazol-1-yl)methyl)-3,4-dihydro-2H-chromeno[8,7-d]isoxazol-9-yl)-2,6-dimethoxybenzenesulfonamide]

IC50 [4]: 0.3 nM
Compound: COc1cccc(OC)c1S(=O)(=O)Nc1noc2cc(Cn3cccn3)c3c(c12)OCCC3 [Compound of formula 1, N-(5-((1H-pyrazol-1-yl)methyl)-3,4-dihydro-2H-chromeno[8,7-d]isoxazol-9-yl)-2,6-dimethoxybenzenesulfonamide]
Maximum inhibition rate/Imax% [5]: 96%
IC50 ([5]; Homo sapiens, ZR-75-1, 336 h): 0.4 nM
